What is called GI50 is the concentration that inhibits growth by half.

One assay deals with MV-4-11 (human, Acute Myeloid Leukemia cell line) cells. As to the kind of experiment: Cell growth inhibition assay, GI50 of MV-4-11. Format: cell-based. To be noted: Homo sapiens, MV4-11, 72 h, MV-4-11 cells. The method, then:
The anti-proliferative activity (cell growth inhibition assay) of the compounds according to the present invention against AML (Acute Myeloid Leukemia) cancer cells was measured. […] The lower the GI50 value, the higher the anti-proliferative activity.
A cell growth Inhibition assay was performed to investigate the rate of inhibition of cell proliferation by the compounds of the present invention. MV-4-11 (human, Acute Myeloid Leukemia cell line) cells were cultured in Iscove's modified Dulbecco's medium (IMDM) including 10% fetal bovine serum (FBS), 1× penicillin/streptomycin (10,000 units/ml Penicillin, […] Streptomycin in 0.85% NaCl). MV-4-11 cells were harvested with the IMDM and 5×10^4 cells/well were transferred to each well of 96-well culture plates (Nunc, #167008).
The compounds of Examples 1 to 5 were exposed to serial dilution and duplicated for each concentration. For the serial dilution, the compounds of the present invention were repeatedly diluted with the same volume of media onto 96-well assay block (costar, #3956). After the dilution, each compound was added to each well.
Also, the background absorbance was measured during the treatment with the test compounds by replacing the test compound with IMDM in the negative control plate. The plates were incubated for three days (72 hours) at 37 in the humidified incubator containing 5% CO2. On the last day, 20 µl of a CellTiter 96 Aqueous One Solution (Promega #G3581) was added to the culture in each well and the plates were incubated for a few hours at 37 in the humidified incubator containing 5% CO2. After the incubation, the absorbance of each cell was measured at 490 nm using an EnVision (Perkinelmer, USA).
The GI50 values were calculated using a Prism 3.0 program.
The molecule `C=CCN1CC(=O)N2C(CN(Cc3cccc4c(C(=O)Nc5ccc(N(C)C)cc5)cn(C)c34)C(=O)[C@@H]2Cc2ccc(O)cc2)N1C(=O)NCc1ccccc1` (stereo partly drawn) [Compound G-14] had a GI50 of 1.2 nM. On the same count and under the same terms, for `C=CCN1CC(=O)N2[C@@H](Cc3ccc(O)cc3)C(=O)N(Cc3cccc4c(-c5ccc(NC(=O)C6CCN(C(C)=O)CC6)cc5)cn(C)c34)C[C@@H]2N1C(=O)NCc1ccccc1` [Compound D-61] the value was 1.3 nM. For the molecule `C=CCN1CC(=O)N2[C@@H](Cc3ccc(O)cc3)C(=O)N(Cc3cccc4c(-c5ccc(C(=O)NC)o5)cn(C)c34)C[C@@H]2N1C(=O)NCc1ccccc1` [Compound D-101], the GI50 worked out at 5.8 nM. Still for that read-out and setting: for `C=CCN1CC(=O)N2[C@@H](Cc3ccc(O)cc3)C(=O)N(Cc3cccc4c(C(=O)N(C)CCCNC(C)C)cn(C)c34)C[C@@H]2N1C(=O)NCc1ccccc1` [Compound F-19] the value was 1.5 nM.

In turn, `C=CCN1CC(=O)N2[C@@H](Cc3ccc(O)cc3)C(=O)N(Cc3cccc4c(C(=O)N5CCN(Cc6cccc(C)n6)CC5)cn(C)c34)C[C@@H]2N1C(=O)NCc1ccccc1` [Compound E-31] displayed a GI50 of 6 nM. With `C=CCN1CC(=O)N2[C@@H](Cc3ccc(O)cc3)C(=O)N(Cc3cccc4c(-c5cccc(C(=O)NC6CCCCC6)c5)cn(C)c34)C[C@@H]2N1C(=O)NCc1ccccc1` [Compound D-9], the GI50 worked out at 3.3 nM. Same read-out and setting: for `C=CCN1CC(=O)N2[C@@H](Cc3ccc(O)cc3)C(=O)N(Cc3cccc4c(C(=O)NCc5cccc(C)n5)cn(C)c34)C[C@@H]2N1C(=O)NCc1ccccc1` [Compound F-44] the value was 4.5 nM; for `C=CCN1CC(=O)N2[C@@H](Cc3ccc(O)cc3)C(=O)N(Cc3cccc4c(C(=O)Nc5ccc(N6CCC(N(C)C)CC6)nc5)cn(C)c34)C[C@@H]2N1C(=O)NCc1ccccc1` [Compound G-45], 1.2 nM; for `C=CCN1CC(=O)N2[C@@H](Cc3ccc(O)cc3)C(=O)N(Cc3cccc4c(-c5ccc(C(=O)N(N)C(C)C)cc5)cn(C)c34)C[C@@H]2N1C(=O)NCc1ccccc1` [Compound D-42], 1.8 nM. `C=CCN1CC(=O)N2[C@@H](Cc3ccc(O)cc3)C(=O)N(Cc3cccc4c(-c5ccc(NC(=O)Nc6ccncn6)cc5)cn(C)c34)C[C@@H]2N1C(=O)NCc1ccccc1` [Compound D-81] gave a GI50 of 9.9 nM. `C=CCN1CC(=O)N2[C@@H](Cc3ccc(O)cc3)C(=O)N(Cc3cccc4c(-c5ccc(C(=O)NC)cc5)cn(C)c34)C[C@@H]2N1C(=O)NCc1ccccc1` [Compound D-8] registered a GI50 of 1.2 nM. The same measure, in the same setting: next, `C=CCN1CC(=O)N2[C@@H](Cc3ccc(O)cc3)C(=O)N(Cc3cccc4c(-c5ccc(NC(=O)NC6CCN(C(C)=O)CC6)cc5)cn(C)c34)C[C@@H]2N1C(=O)NCc1ccccc1` [Compound D-84]: 1.7 nM; `C=CCN1CC(=O)N2[C@@H](Cc3ccc(O)cc3)C(=O)N(Cc3cccc4c(-c5ccc(NC(=O)N6CCN(C)CC6)cc5)cn(C)c34)C[C@@H]2N1C(=O)NCc1ccccc1` [Compound D-67]: 1.3 nM; `C=CCN1CC(=O)N2C(CN(Cc3cccc4c(C(=O)Nc5ccc(N6CCN(C)CC6)cc5)cn(C)c34)C(=O)[C@@H]2Cc2ccc(O)cc2)N1C(=O)NCc1ccccc1` (stereo partly drawn) [Compound G-40]: 1.3 nM.

Molecule `C=CCN1CC(=O)N2[C@@H](Cc3ccc(O)cc3)C(=O)N(Cc3cccc4c(-c5ccc(C(=O)NC6CCN(C(C)C)CC6)o5)cn(C)c34)C[C@@H]2N1C(=O)NCc1ccccc1` [Compound D-104] displayed a GI50 of 6.3 nM.

The molecule `C=CCN1CC(=O)N2[C@@H](Cc3ccc(O)cc3)C(=O)N(Cc3cccc4c(-c5ccc(NC(=O)c6ccc(CN(C)C)cc6)cc5)cn(C)c34)C[C@@H]2N1C(=O)NCc1ccccc1` [Compound D-54] registered a GI50 of 1.2 nM.

As for `C=CCN1CC(=O)N2[C@@H](Cc3ccc(O)cc3)C(=O)N(Cc3cccc4c(-c5ccc(C(=O)N6CCN(C)CC6)o5)cn(C)c34)C[C@@H]2N1C(=O)NCc1ccccc1` [Compound D-105], growth was halved (GI50) at 3.7 nM. Still for that read-out and setting: for `C=CCN1CC(=O)N2[C@@H](Cc3ccc(O)cc3)C(=O)N(Cc3cccc4c(C(=O)N(C)Cc5ccc(N(C)C)cc5)cn(C)c34)C[C@@H]2N1C(=O)NCc1ccccc1` [Compound F-46] the value was 1.3 nM. For the molecule `C=CCN1CC(=O)N2C(CN(Cc3cccc4c(C(=O)Nc5ccc(N(C)CCCO)nc5)cn(C)c34)C(=O)[C@@H]2Cc2ccc(O)cc2)N1C(=O)NCc1ccccc1` (stereo partly drawn) [Compound G-20], it took 1.7 nM to inhibit growth by half (GI50). Still for that read-out and setting: next, `C=CCN1CC(=O)N2[C@@H](Cc3ccc(O)cc3)C(=O)N(Cc3cccc4c(C(=O)N5CCN(Cc6cccc(OC)c6)CC5)cn(C)c34)C[C@@H]2N1C(=O)NCc1ccccc1` [Compound E-35]: 5.1 nM.

In the case of `C=CCN1CC(=O)N2[C@@H](Cc3ccc(O)cc3)C(=O)N(Cc3cccc4c(C(=O)N5CCN(Cc6ccc(C)cc6)CC5)cn(C)c34)C[C@@H]2N1C(=O)NCc1ccccc1` [Compound E-27], the GI50 turned out to be 13.5 nM. On the same count and under the same terms, for `C=CCN1CC(=O)N2[C@@H](Cc3ccc(O)cc3)C(=O)N(Cc3cccc4c(C(=O)N5CCN(Cc6ccccc6)CC5)cn(C)c34)C[C@@H]2N1C(=O)NCc1ccccc1` [Compound E-26] the value was 2.3 nM; for `C=CCN1CC(=O)N2[C@@H](Cc3ccc(O)cc3)C(=O)N(Cc3cccc4c(-c5ccc(C(C)=O)s5)cn(C)c34)C[C@@H]2N1C(=O)NCc1ccccc1` [Compound H-8], 5.7 nM; for `C=CCN1CC(=O)N2[C@@H](Cc3ccc(O)cc3)C(=O)N(Cc3cccc4c(C(=O)N(C)CCCc5c(C)nn(C)c5C)cn(C)c34)C[C@@H]2N1C(=O)NCc1ccccc1` [Compound F-38], 6.1 nM.

`C=CCN1CC(=O)N2[C@@H](Cc3ccc(O)cc3)C(=O)N(Cc3cccc4c(-c5ccc(C(N)=O)cc5)cn(C)c34)C[C@@H]2N1C(=O)NCc1ccccc1` [Compound D-7]: the GI50 was determined as 1.2 nM.

In turn, `C=CCN1CC(=O)N2[C@@H](Cc3ccc(O)cc3)C(=O)N(Cc3cccc4c(-c5ccc(NC(=O)N6CC(N7CCOCC7)C6)cc5)cn(C)c34)C[C@@H]2N1C(=O)NCc1ccccc1` [Compound D-66] showed a GI50 of 1.3 nM. For the molecule `C=CCN1CC(=O)N2[C@@H](Cc3ccc(O)cc3)C(=O)N(Cc3cccc4c(-c5ccc(NC(=O)N6CCC(N(C)C)CC6)cc5)cn(C)c34)C[C@@H]2N1C(=O)NCc1ccccc1` [Compound D-65], the GI50 stood at 1.3 nM. The same measure, in the same setting: for `C=CCN1CC(=O)N2[C@@H](Cc3ccc(O)cc3)C(=O)N(Cc3cccc4c(-c5ccc(NC(=O)Nc6ccc(OC)cc6)nc5)cn(C)c34)C[C@@H]2N1C(=O)NCc1ccccc1` [Compound D-86] the value was 4.9 nM. On the same count and under the same terms, for `C=CCN1CC(=O)N2[C@@H](Cc3ccc(O)cc3)C(=O)N(Cc3cccc4c(C(=O)NCc5cccc(N6CCOCC6)n5)cn(C)c34)C[C@@H]2N1C(=O)NCc1ccccc1` [Compound F-50] the value was 1.6 nM. The same measure, in the same setting: for `C=CCN1CC(=O)N2C(CN(Cc3cccc4c(C(=O)Nc5ccc(N)nc5)cn(C)c34)C(=O)[C@@H]2Cc2ccc(O)cc2)N1C(=O)NCc1ccccc1` (stereo partly drawn) [Compound G-9] the value was 19.9 nM.

For the molecule `C=CCN1CC(=O)N2[C@@H](Cc3ccc(O)cc3)C(=O)N(Cc3cccc4c(-c5ccc(C(=O)N(C)OC)cc5)cn(C)c34)C[C@@H]2N1C(=O)NCc1ccccc1` [Compound D-47], halving of growth (GI50) required 1.3 nM.

In turn, `C=CCN1CC(=O)N2[C@@H](Cc3ccc(O)cc3)C(=O)N(Cc3cccc4c(-c5ccc(NC(=O)Nc6ccc(N7CCN(C)CC7)nc6)cc5)cn(C)c34)C[C@@H]2N1C(=O)NCc1ccccc1` [Compound D-78] came in with a GI50 of 1.5 nM. The same measure, in the same setting: next, `C=CCN1CC(=O)N2C(CN(Cc3cccc4c(-c5ccc(NC(=O)C6CCN(C)CC6)cc5)cn(C)c34)C(=O)[C@@H]2Cc2ccc(O)cc2)N1C(=O)NCc1ccccc1` (stereo partly drawn) [Compound D-60]: 1.1 nM. The same measure, in the same setting: next, `C=CCN1CC(=O)N2[C@@H](Cc3ccc(O)cc3)C(=O)N(Cc3cccc4c(-c5cccc(C(=O)NCc6ccccc6)c5)cn(C)c34)C[C@@H]2N1C(=O)NCc1ccccc1` [Compound D-28]: 5.5 nM. Still for that read-out and setting: for `C=CCN1CC(=O)N2[C@@H](Cc3ccc(O)cc3)C(=O)N(Cc3cccc4c(C(=O)N(C)CC(C)(C)CO)cn(C)c34)C[C@@H]2N1C(=O)NCc1ccccc1` [Compound F-8] the value was 2 nM; for `C=CCN1CC(=O)N2[C@@H](Cc3ccc(O)cc3)C(=O)N(Cc3cccc4c(-c5ccc(NC(=O)C6CCCN(C)C6)cc5)cn(C)c34)C[C@@H]2N1C(=O)NCc1ccccc1` (stereo partly drawn) [Compound D-63], 1.3 nM; for `C=CCN1CC(=O)N2[C@@H](Cc3ccc(O)cc3)C(=O)N(Cc3cccc4c(C(=O)N5CCC(NC(=O)OC(C)(C)C)CC5)cn(C)c34)C[C@@H]2N1C(=O)NCc1ccccc1` [Compound E-56], 3.1 nM. `C=CCN1CC(=O)N2[C@@H](Cc3ccc(O)cc3)C(=O)N(Cc3cccc4c(-c5ccc(C(=O)NOC(C)(C)C)cc5)cn(C)c34)C[C@@H]2N1C(=O)NCc1ccccc1` [Compound D-46] had a GI50 of 3.4 nM.

The assay is the same for the next values; noted with them: MV-4-11 cells, 72 hours; read-out: MV4-11 GI50.
Take `C=CCN1CC(=O)N2[C@@H](Cc3ccc(O)cc3)C(=O)N(Cc3cccc4c(C(=O)N5CCN(Cc6ccccn6)CC5)cn(C)c34)C[C@@H]2N1C(=O)NCc1ccccc1` [Compound E-28]: the GI50 was 5.6 nM.

Values taken from patent US8940739B2, “Compound of a reverse-turn mimetic and a production method and use therefor” (JW Pharmaceutical Corporation, priority 2010, dated 2015).
